From paper PMC6272903, “Synthesis and Structure-Activity Relationship Analysis of 5-HT7 Receptor Antagonists: Piperazin-1-yl Substituted Unfused Heterobiaryls” (Molecules, 2016)
Values joined by “and” are separate entries in the source; they are usually repeats but may differ in a detail not shown here. Equal values may be shown once. Where a name gives a salt, the structure may show the parent alone.

What was measured:
[1] = target: T1, human 5-HT7b receptors (Homo sapiens, UniProt P34969); experiment: 5-HT7 competition radioligand binding assay ([3H]5-CT); conditions: HEK293 cells overexpressing human 5-HT7b receptors, at least two independent experiments in triplicate, read-out: Ki ± S.D. 5-HT7 binding affinity
T1 construct: expressed in transfected cells; host or cells: HEK293
Method: Novel scaffold endowed with 5-HT7R activity was identified by screening of the in-house compound library in a single compound concentration of 1 µM in a competition radioligand binding assay using [^3H]5-CT and HEK293 cells overexpressing the human 5-HT7b receptors.

T1 sequence (P34969 1-432): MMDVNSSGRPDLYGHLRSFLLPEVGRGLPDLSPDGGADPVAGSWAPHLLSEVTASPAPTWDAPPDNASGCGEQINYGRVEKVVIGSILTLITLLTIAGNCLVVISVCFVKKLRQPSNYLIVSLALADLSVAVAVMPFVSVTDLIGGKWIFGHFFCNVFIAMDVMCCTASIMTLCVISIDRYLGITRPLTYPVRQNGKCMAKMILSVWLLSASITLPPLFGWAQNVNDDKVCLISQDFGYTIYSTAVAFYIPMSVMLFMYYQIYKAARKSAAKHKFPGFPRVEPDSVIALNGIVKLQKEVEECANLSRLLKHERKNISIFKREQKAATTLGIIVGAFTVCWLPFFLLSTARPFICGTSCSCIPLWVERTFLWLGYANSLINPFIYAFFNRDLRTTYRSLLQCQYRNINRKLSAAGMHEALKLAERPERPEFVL

Structure (SMILES)	melting point	Ki [1]
c1cc(-c2ccoc2)nc(N2CCNCC2)n1 (as salt: hydrobromid) [Compound 1, 4-(3-Furyl)-2-(piperazin-1-yl)pyrimidine]	241 to 242 °C	–
CCCN1CCN(c2nccc(-c3ccoc3)n2)CC1 (as salt: hydrobromid) [Compound 4, 4-(3-Furyl)-2-(4-propylpiperazin-1-yl)pyrimidine]	274 to 277 °C	–
c1ccc(CN2CCN(c3nccc(-c4ccoc4)n3)CC2)cc1 (as salt: hydrobromid) [Compound 5, 2-(4-Benzylpiperazin-1-yl)-4-(3-furyl)pyrimidine]	> 280 °C	–
CCc1cc(-c2ccoc2)nc(N2CCN(C)CC2)n1 (as salt: hydrobromid) [Compound 12, 4-Ethyl-6-(3-furyl)-2-(4-methylpiperazin-1-yl)pyrimidine]	287 to 288 °C	–
CCCCc1cc(-c2ccoc2)nc(N2CCN(C)CC2)n1 (as salt: hydrobromid) [Compound 13, 4-(n-Butyl)-6-(3-furyl)-2-(4-methylpiperazin-1-yl)pyrimidine]	179 to 180 °C	–
CCCc1cnc(N2CCN(C)CC2)nc1-c1ccoc1 (as salt: hydrobromid) [Compound 21, 4-(3-Furyl)-2-(4-methylpiperazino)-5-propylpyrimidine]	206 to 208 °C	–
CCCCc1nc(N2CCN(C)CC2)nc(-c2ccoc2)c1CCC (as salt: hydrobromid) [Compound 22, 4-n-Butyl-6-(3-furyl)-2-(4-methylpiperazino)-5-propylpyrimidine]	203 °C (dec.)	–
Cc1occc1-c1ccnc(N2CCN(C)CC2)n1 (as salt: hydrobromid) [Compound 23, 4-(2-Methyl-3-furyl)-2-(4-methylpiperazin-1-yl)pyrimidine]	263 to 265 °C	–
Cc1cc(-c2ccnc(N3CCN(C)CC3)n2)co1 (as salt: hydrobromid) [Compound 24, 4-(5-Methyl-3-furyl)-2-(4-methylpiperazin-1-yl)pyrimidine]	275 °C (dec.)	–
CCCCCCc1cc(-c2coc(C)c2)nc(N2CCN(C)CC2)n1 (as salt: hydrobromid) [Compound 25, 4-n-Hexyl-6-(5-methyl-3-furyl)-2-(4-methylpiperazin-1-yl)pyrimidine]	242 °C (dec.)	–
Cc1ccc(-c2ccnc(N3CCN(C)CC3)n2)o1 (as salt: hydrobromid) [Compound 29, 4-(5-Methyl-2-furyl)-2-(4-methylpiperazin-1-yl)pyrimidine]	263 to 265 °C	–
CN1CCN(c2nccc(-c3cc4ccccc4o3)n2)CC1 (as salt: hydrobromid) [Compound 36, 4-(Benzofuran-2-yl)-2-(4-methylpiperazin-1-yl)pyrimidine]	> 300 °C	–
c1cc(-c2ccoc2)nc(NCCN2CCOCC2)n1 [Compound 45, 4-(3-Furyl)-N-[2-(morpholin-4-yl)ethyl]pyrimidin-2-amine]	–	2460 ± 343 nM
c1cc(-c2ccoc2)nc(NCCCc2ncc[nH]2)n1 [Compound 46, 4-(3-Furyl)-N-[3-(1H-imidazol-2-yl)propyl]pyrimidin-2-amine]	–	1280 ± 187 nM
c1cc(-c2ccoc2)nc(N2CC[N+]3(CCOCC3)CC2)n1 [Compound 47, 4-[4-(3-Furyl)pyrimidin-2-yl]piperazine-1-spiro-1-morpholinium iodide]	–	299 ± 42 nM
CN1CCN(c2nc(-c3ccoc3)c3ccccc3n2)CC1 [Compound 48, 4-(3-Furyl)-2-(methylpiperazin-1-yl)quinazoline]	–	1910 ± 235 nM
CN1CCN(c2nc(N3CCN(C)CC3)c3ccccc3n2)CC1 [Compound 49, 2,4-bis(4-Methylpiperazin-1-yl)quinazoline]	–	7540 ± 1140 nM
CN(C)CCc1nc(N2CCN(C)CC2)nc2ccccc12 [Compound 50]	–	> 10000 nM
CN1CCN(c2cc(-c3ccoc3)ccn2)CC1 [Compound 51, 4-(3-Furyl)-2-(4-methylpiperazin-1-yl)pyridine]	–	17 ± 2 nM
CN1CCN(c2cc(-c3ccco3)ccn2)CC1 [Compound 52, 4-(2-Furyl)-2-(4-methylpiperazin-1-yl)pyridine]	–	307 ± 42 nM

Structure (SMILES)	melting point	Ki [1]
CN1CCN(c2cc(-c3cccs3)ccn2)CC1 [Compound 53, 2-(4-Methylpiperazin-1-yl)-4-(2-thienyl)pyridine]	–	396 ± 55 nM
Cc1cc(-c2ccoc2)cc(N2CCN(C)CC2)n1 [Compound 54, 4-(3-Furyl)-2-methyl-6-(4-methylpiperazin-1-yl)pyridine]	–	8 ± 1 nM
Cc1cc(-c2ccco2)cc(N2CCN(C)CC2)n1 [Compound 55, 4-(2-Furyl)-2-methyl-6-(4-methylpiperazin-1-yl)pyridine]	–	139 ± 22 nM
Cc1cc(-c2cccs2)cc(N2CCN(C)CC2)n1 [Compound 56, 2-Methyl-6-(4-methylpiperazin-1-yl)-4-(2-thienyl)pyridine]	–	117 ± 12 nM
CN1CCN(c2cccc(-c3ccoc3)n2)CC1 [Compound 57, 6-(3-Furyl)-2-(4-methylpiperazin-1-yl)pyridine]	–	8 nM and 11 nM
CN1CCN(c2cccc(-c3ccsc3)n2)CC1 [Compound 58, 2-(4-Methylpiperazin-1-yl)-6-(3-thienyl)pyridine]	–	79 ± 14 nM
CN1CCN(c2cccc(-c3ccco3)n2)CC1 [Compound 59, 2-(2-Furyl)-6-(4-methylpiperazin-1-yl)pyridine]	–	1140 ± 154 nM
CN1CCN(c2cccc(-c3ccoc3)c2)CC1 [Compound 60, 1-[3-(3-Furyl)phenyl]-4-methylpiperazine]	–	31 ± 4 nM
Cc1cc(-c2ccoc2)cc(N2CCN(C)CC2)c1 [Compound 61, 1-[3-(3-Furyl)-5-methylphenyl]-4-methylpiperazine]	–	37 ± 3 nM
CCCCc1cc(-c2ccoc2)cc(N2CCN(C)CC2)c1 [Compound 62, 1-[3-n-Butyl-5-(3-furyl)phenyl]-4-methylpiperazine]	–	106 ± 9 nM
CN1CCN(c2cccc(-c3ccco3)c2)CC1 [Compound 63, 1-[3-(2-Furyl)phenyl]-4-methylpiperazine]	–	914 ± 121 nM
Cc1cc(-c2ccco2)cc(N2CCN(C)CC2)c1 [Compound 64, 1-[3-(2-Furyl)-5-methylphenyl]-4-methylpiperazine]	–	312 ± 25 nM
CCCCc1cc(-c2ccco2)cc(N2CCN(C)CC2)c1 [Compound 65, 1-[3-n-Butyl-5-(2-furyl)phenyl]-4-methylpiperazine]	–	743 ± 66 nM
CN1CCN(c2cccc(-c3ccsc3)c2)CC1 [Compound 66, 1-Methyl-4-[3-(3-thienyl)phenyl]piperazine]	–	342 ± 51 nM
Cc1cc(-c2ccsc2)cc(N2CCN(C)CC2)c1 [Compound 67, 1-Methyl-4-[3-methyl-5-(3-thienyl)phenyl]piperazine]	–	47 ± 6 nM
CCCCc1cc(-c2ccsc2)cc(N2CCN(C)CC2)c1 [Compound 68, 1-[3-n-Butyl-5-(3-thienyl)phenyl]-4-methylpiperazine]	–	263 ± 19 nM
CN1CCN(c2cccc(-c3cccs3)c2)CC1 [Compound 69, 1-Methyl-4-[3-(2-thienyl)phenyl]piperazine]	–	542 ± 66 nM
Cc1cc(-c2cccs2)cc(N2CCN(C)CC2)c1 [Compound 70, 1-Methyl-4-[3-methyl-5-(2-thienyl)phenyl]piperazine]	–	297 ± 42 nM
CCCCc1cc(-c2cccs2)cc(N2CCN(C)CC2)c1 [Compound 71, 1-[3-n-Butyl-5-(2-thienyl)phenyl]-4-methylpiperazine]	–	734 ± 59 nM
